Experimental data reported in patent publication US10064826B2, “Direct compression and dry granulation processes for preparing carglumic acid tablets having less impurities than those produced by wet granulation process” (Navinta, LLC, priority 2013, dated 2018).

Experiment: Stability under stress conditions (alkaline, acidic, light, oxidizing medium)
Format: physicochemical
Conditions: light or hydrogen peroxide
Procedure: Both batches of carglumic acid tablets from Examples 1 and 2 are also evaluated for stability under stress conditions.
Principal degradation products are hydantoin-5-propionic acid (“5-HPA”) and diaza-1,3-dione-2,4-carboxy-7-cycloheptane. Among them, 5-HPA is toxic and thus it must be controlled below 0.1%. L-Pyroglutamic acid is another common impurity in the carglumic acid tablet.

Degradation when exposed to light or an oxidizing medium: slowly degraded
Compound: NC(=O)N[C@@H](CCC(=O)O)C(=O)O [Carglumic acid, (2S)-2-(carbamoylamino)pentanedioic acid]
